Assay results published in patent publication US20250214986A1, “P2X3 INHIBITOR COMPOUND, SALT THEREOF, POLYMORPH THEREOF AND USE THEREOF” (HUMANWELL HEATHCARE (GROUP) CO., LTD., priority 2022, published 2025).

Key:
[1] = system: citric acid/histamine-stimulated cough model; assay: Cough efficacy assay of histamine/citric acid in guinea pigs; format: in vivo; conditions: histamine/citric acid nebulization, intranasal instillation
Experimental: (§1) Before enrollment, the animals were acclimatized for 3-7 days. Once their body weight reached the standard (300-400 g), they were numbered and randomly grouped. 0.25-24 h before the start of the cough assessment, the compound or excipient was administered to the guinea pigs via intranasal instillation. The dose range for the administration of the test substance was 0.17-1.5 mg/kg. During the cough assessment, after the animals were acclimated in a whole-body plethysmography box, they were given histamine nebulization, followed by citric acid nebulization. The number of coughs and the cough latency of the animals were recorded within 22 min from the start of the histamine nebulization until the end of the observation period. For the statistics of experimental data, the one-way ANOVA method was used to analyze and compare the data of the groups. Statistical analysis results with p<0.05 were considered to indicate significant differences. Pairwise comparisons were performed using the t-test method to assess differences.

[2] = Pharmacokinetic assay in mice; format: in vivo, male ICR mice; conditions: male, ICR, mouse, plasma, mice, oral intragastric administration, 10 mg/kg
Experimental: Pharmacokinetic assay in mice was performed, wherein the mice used were male ICR mice weighing 20-25 g and fasted overnight. 3 mice were taken and given the compound by oral intragastric administration at 10 mg/kg, and blood was collected before administration and at 15 min, 30 min, 1 h, 2 h, 4 h, 8 h, and 24 h after administration. The blood samples were centrifuged at 6800 g at 2-8° C. for 6 min, and plasma was collected and stored at −80° C. […] The mixture was vortexed for 1 min and then centrifuged at 13000 rpm at 4° C. for 10 min. The supernatant was taken, and 3 times its amount of water was added for mixing. A proper amount of the resulting mixture was taken for LC-MS/MS analysis. The major pharmacokinetic parameters were analyzed using a non-compartmental model in the WinNonlin 7.0 software.

[3] = system: citric acid/ATP-stimulated cough model; assay: Cough efficacy assay of ATP/citric acid in guinea pigs; format: in vivo; conditions: ATP/citric acid nebulization, intranasal instillation
Experimental: as §1, with “ATP” for “histamine”, “and after a few minutes, they were given” for “followed by”, “15” for “22”, “citric acid nebulization. The” for “histamine nebulization until the end of the observation period. For the statistics of experimental data, the”

[4] = Solid state stability (XRPD and HPLC); format: physicochemical
Experimental: In the test, the purity, dynamic solubility and stability were tested using an Agilent 1260 high-performance liquid chromatograph, the molar ratio of salt-forming ions was tested using ion chromatography, and the analytical conditions are shown in Tables A-4 and A-5 below. [table]

[5] = Hygroscopicity by dynamic vapor sorption (DVS); format: physicochemical
Experimental: Dynamic vapor sorption (DVS) curves were acquired on a DVS IntrInsic from Surface Measurement Systems (SMS). The relative humidity at 25° C. was corrected with the deliquescence points of LiCl, Mg(NO3)2, and KCl.
Starting at 0% RH, the test acquired the percentage changes in mass of the samples when the humidity changed (0% RH to 95% RH to 0% RH) at a constant temperature of 25° C.

[6] = Dynamic solubility experiment at 37° C.; format: physicochemical
Experimental: In the test, the purity, dynamic solubility and stability were tested using an Agilent 1260 high-performance liquid chromatograph, the molar ratio of salt-forming ions was tested using ion chromatography, and the analytical conditions are shown in Tables A-4 and A-5 below.
Solids at a feeding concentration of 10 mg/mL (calculated based on free base) were rotationally mixed with corresponding vehicles at 37° C. […] After sampling at each time point, the samples were centrifuged (at 10000 rpm) and filtered (through a 0.45 μm PTFE filter head). The HPLC concentrations and pH values of the filtrates were determined.
100.2 mg of NaCl and 50.3 mg of Triton X-100 were weighed into a 50 mL volumetric flask and then completely dissolved by addition of purified water. 816 μL of 1 M hydrochloric acid was added, and the pH was adjusted to 1.8 with 1 M hydrochloric acid or 1 M NaOH solution. The mixed solution was brought to the volume by addition of purified water.
170.5 mg of anhydrous NaH2PO4, 22.2 mg of NaOH, and 310.9 mg of NaCl were weighed into a 50 mL volumetric flask and then completely dissolved by addition of purified water. The pH was adjusted to 6.5 with 1 M hydrochloric acid or 1 M NaOH solution. The mixed solution was brought to the volume by addition of purified water. Subsequently, 55.1 mg of SIF powder was weighed into a 25 mL volumetric flask and completely dissolved with the above solution, and the mixed solution was brought to the volume.
0.21 mL of glacial acetic acid, 101.6 mg of NaOH, and 295.4 mg of NaCl were added into a 25 mL volumetric flask and then completely dissolved by addition of about 20 mL of purified water. The pH was adjusted to 5.0 with 1 M hydrochloric acid or 1 M NaOH solution. The mixed solution was brought to the volume by addition of purified water, and then 280.8 mg of SIF powder was weighed into the flask and completely dissolved.

[7] = Competitive suspension tests of free base crystalline forms A/B; format: physicochemical
Experimental: In order to confirm the thermodynamic transformation relationship between the anhydrous free base crystalline forms A and B under different temperature conditions, competitive suspension tests in n-heptane and toluene at room temperature and 50° C. were set up.

[8] = 25° C./60% RH/uncovered, 1 month
[9] = 25° C./60% RH/uncovered, 1 week
[10] = 40° C./75% RH/uncovered, 1 month
[11] = 40° C./75% RH/uncovered, 1 week

Cc1cnc(-c2cc(O[C@@H]3CCOC3)cc(C(=O)N[C@H](C)c3cnc(C(F)(F)F)nc3)c2)s1 [Control compound 1, reference compound]
Cough inhibition rate vs. vehicle (%) [1]: 57.1% | Mean number of coughs within 15 min [1]: 11.4 | AUC(0-t) [2]: 5200 ng·h/mL | Cmax [2]: 1250 ng/mL | Tmax [2]: 30 min | half-life ([2]; read-out: T½ (converted)): 145 min | Cough inhibition rate vs. vehicle (%) [3]: 59.1% | Mean number of coughs within 15 min [3]: 8.1

Cc1cnc(-c2cc(O[C@@H](C)[C@@H](C)O)cc(C(=O)N[C@H](C)c3cnc(C(F)(F)F)nc3)c2F)s1 [Crystalline form A of p-toluenesulfonate]
HPLC Purity (area %) [4, 8]: 99.92 area % | HPLC purity Relative to starting (%) [4, 8]: 100.00% | HPLC Purity (area %) [4, 9]: 99.92 area % | HPLC purity Relative to starting (%) [4, 9]: 100.00% | HPLC Purity (area %) [4, 10]: 99.92 area % | HPLC purity Relative to starting (%) [4, 10]: 100.00% | HPLC Purity (area %) [4, 11]: 99.92 area % | HPLC purity Relative to starting (%) [4, 11]: 100.00% | change of HPLC purity after placement under the corresponding conditions ([4]; 60° C. sealed 1 day, 25° C./60% RH and 40° C./75% RH uncovered 1 week/1 month): no significant change | HPLC Purity (area %) ([4]; 60° C./sealed, 1 day): 99.92 area % | HPLC purity Relative to starting (%) ([4]; 60° C./sealed, 1 day): 100.00% | HPLC Purity (area %) ([4]; Starting): 99.92 area % | crystalline form after DVS test ([5]; 0% RH to 95% RH to 0% RH, 25° C.): remained unchanged | vapor sorption ([5]; 25° C./80% RH): about 0.12% | hygroscopicity ([5]; DVS, 25° C./80% RH): almost no hygroscopicity | Crystalline form change ([6]; FaSSIF, 1 h): Yes^b′ (transformed to free base crystalline form B + additional diffraction peaks) | S: solubility ([6]; FaSSIF, 1 h): 0.028 mg/mL | pH of filtrate ([6]; FaSSIF, 1 h): 2.6 | Crystalline form change ([6]; FaSSIF, 4 h): Yes^a′ | S: solubility ([6]; FaSSIF, 4 h): 0.013 mg/mL | pH of filtrate ([6]; FaSSIF, 4 h): 2.6 | Crystalline form change ([6]; FaSSIF, 24 h): Yes^a′ | S: solubility ([6]; FaSSIF, 24 h): 0.006 mg/mL | pH of filtrate ([6]; FaSSIF, 24 h): 2.6 | Crystalline form change ([6]; FeSSIF, 1 h): Yes^b′ (transformed to free base crystalline form B + additional diffraction peaks) | S: solubility ([6]; FeSSIF, 1 h): 0.095 mg/mL | pH of filtrate ([6]; FeSSIF, 1 h): 4.8 | Crystalline form change ([6]; FeSSIF, 4 h): Yes^b (transformed to free base crystalline form B) | S: solubility ([6]; FeSSIF, 4 h): 0.081 mg/mL | pH of filtrate ([6]; FeSSIF, 4 h): 4.8 | Crystalline form change ([6]; FeSSIF, 24 h): Yes^a′ | S: solubility ([6]; FeSSIF, 24 h): 0.028 mg/mL | pH of filtrate ([6]; FeSSIF, 24 h): 4.8 | Crystalline form change ([6]; H2O, 1 h): Yes^a | S: solubility ([6]; H2O, 1 h): 0.006 mg/mL | pH of filtrate ([6]; H2O, 1 h): 1.8 | Crystalline form change ([6]; H2O, 4 h): Yes^a | S: solubility ([6]; H2O, 4 h): 0.005 mg/mL | pH of filtrate ([6]; H2O, 4 h): 1.8 | Crystalline form change ([6]; H2O, 24 h): Yes^a | S: solubility ([6]; H2O, 24 h): 0.005 mg/mL | pH of filtrate ([6]; H2O, 24 h): 1.8 | Crystalline form change ([6]; SGF, 1 h): Yes^b′ (transformed to free base crystalline form B + additional diffraction peaks) | S: solubility ([6]; SGF, 1 h): 0.037 mg/mL | pH of filtrate ([6]; SGF, 1 h): 1.5 | Crystalline form change ([6]; SGF, 4 h): Yes^a+b′ | S: solubility ([6]; SGF, 4 h): 0.033 mg/mL | pH of filtrate ([6]; SGF, 4 h): 1.5 | Crystalline form change ([6]; SGF, 24 h): Yes^a′ | S: solubility ([6]; SGF, 24 h): 0.012 mg/mL | pH of filtrate ([6]; SGF, 24 h): 1.5 | 1-hour solubility in the three biological vehicles other than H2O compared with the other forms ([6]; SGF, FaSSIF, FeSSIF, 1 h): highest 1-hour solubility

Cc1cnc(-c2cc(O[C@@H](C)[C@@H](C)O)cc(C(=O)N[C@H](C)c3cnc(C(F)(F)F)nc3)c2F)s1 [Free base crystalline forms A + B]
Resulting crystalline form after competitive suspension ([7]; Toluene, 50° C., 2 d): Free base crystalline form A | Resulting crystalline form after competitive suspension ([7]; Toluene, RT, 5 d): Free base crystalline form A | Resulting crystalline form after competitive suspension ([7]; n-Heptane, 50° C., 2 d): Free base crystalline form A | Resulting crystalline form after competitive suspension ([7]; n-Heptane, RT, 42 d): Free base crystalline form A
